From article PMC11550998, “Novel 5-HT7 receptor antagonists modulate intestinal immune responses and reduce severity of colitis” (American Journal of Physiology - Gastrointestinal and Liver …, 2024)

How the values were obtained:
[1] = molecular target: T1, α2B (Homo sapiens, UniProt P18089); test: PDSP selectivity profiling, α2B; assay type: binding
T1 construct: NIMH Psychoactive Drug Screening Program (PDSP), assay service
Description: In vitro assessments of MC-170073, MC-20078, and MC-230079 activity at the following targets were determined using the assay systems available through the Psychoactive Drug Screening Program (PDSP). Detailed protocols for each assay are available at https://pdsp.unc.edu/pdspweb/?site=assays. Receptors 5-HT1A, 5-HT1B, 5-HT1D, 5-HT1E, 5-HT2A, 5-HT2B, 5-HT2C, 5-HT3, 5-HT5A, 5-HT6, 5-HT7, α1A, α1B, α1D, α2A, α2B, α2C, benzodiazepine, β1, β2, β3, GABA-A, H1, H2, H3, H4, M1, M2, M3, M4, M5, δ-opioid, κ-opioid, and µ-opioid and transporters dopamine, norepinephrine, and serotonin were evaluated.

[2] = molecular target: T2, D3 (Homo sapiens, UniProt P35462); test: PDSP selectivity profiling, D3; assay type: binding
T2 construct: NIMH Psychoactive Drug Screening Program (PDSP), assay service
T2 sequence (P35462 whole entry): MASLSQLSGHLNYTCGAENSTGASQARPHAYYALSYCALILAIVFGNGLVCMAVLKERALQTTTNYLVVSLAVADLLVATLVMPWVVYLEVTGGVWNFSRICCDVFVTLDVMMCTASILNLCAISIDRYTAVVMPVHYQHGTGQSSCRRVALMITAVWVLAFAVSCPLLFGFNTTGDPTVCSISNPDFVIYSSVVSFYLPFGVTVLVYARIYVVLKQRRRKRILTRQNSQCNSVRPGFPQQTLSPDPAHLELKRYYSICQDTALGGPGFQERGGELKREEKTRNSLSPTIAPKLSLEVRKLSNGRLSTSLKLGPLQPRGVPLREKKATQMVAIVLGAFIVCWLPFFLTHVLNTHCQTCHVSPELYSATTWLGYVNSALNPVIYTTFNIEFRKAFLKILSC

[3] = molecular target: T3, D1 (Homo sapiens, UniProt P21728); test: PDSP selectivity profiling, D1; assay type: binding
T3 construct: NIMH Psychoactive Drug Screening Program (PDSP), assay service
T3 sequence (P21728 whole entry): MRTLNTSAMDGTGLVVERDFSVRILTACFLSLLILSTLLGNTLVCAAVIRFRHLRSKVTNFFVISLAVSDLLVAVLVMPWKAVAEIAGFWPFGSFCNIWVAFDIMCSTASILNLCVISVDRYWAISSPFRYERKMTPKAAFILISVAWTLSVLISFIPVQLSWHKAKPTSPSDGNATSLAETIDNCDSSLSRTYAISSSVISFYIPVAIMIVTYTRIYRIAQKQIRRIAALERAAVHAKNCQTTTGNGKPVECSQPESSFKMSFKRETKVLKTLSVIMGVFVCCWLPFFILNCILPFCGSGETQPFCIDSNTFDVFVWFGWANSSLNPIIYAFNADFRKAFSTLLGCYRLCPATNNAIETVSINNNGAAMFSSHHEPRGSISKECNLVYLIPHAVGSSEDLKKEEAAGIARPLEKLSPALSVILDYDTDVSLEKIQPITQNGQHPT

[4] = Plasma protein binding by equilibrium dialysis; assay type: in vitro ADME; details: mouse
Description: Plasma protein binding was performed by using equilibrium dialysis (ED) ([17]). ED was performed using a 96-well equilibrium dialyzer with a molecular weight (MW) cutoff of 5 K (Harvard Apparatus, Holliston, MA) and placed in a dual-plate rotator set to maximum speed (Harvard Apparatus, Holliston, MA) located in a 37°C incubator with a 10% CO2 environment. After 22 h of dialysis, buffer and plasma were removed from each side of the dialysis plate. Samples were mixed with equal volumes of the opposite matrix (plasma or buffer) and stored at −20°C for future analyte quantitation.
Plasma concentrations were determined using an LC-MS/MS method. Briefly, 100-µL acetonitrile with an internal standard solution (Diltiazem, 0.1 μg/mL) was added to 50-µL plasma or tissue homogenate. After being vortexed for 1 min, the mixture was centrifuged at 3,000 g for 5 min. LC-MS/MS analysis was carried out using a high-performance liquid chromatography system consisting of an Agilent 1100 system interfaced to an API4000 SCIEX triple-quadrupole tandem mass spectrometer (Applied Biosystems/MDS Sciex, Foster City, CA). […] The detection and quantification of analytes were performed with the m/z transition 347/191 for MC-170073, MC-230078, and MC-230079, and m/z 415/178 for diltiazem.

[5] = molecular target: T4, D4 (Homo sapiens, UniProt P21917); test: PDSP selectivity profiling, D4; assay type: binding
T4 construct: NIMH Psychoactive Drug Screening Program (PDSP), assay service
T4 sequence (P21917 whole entry): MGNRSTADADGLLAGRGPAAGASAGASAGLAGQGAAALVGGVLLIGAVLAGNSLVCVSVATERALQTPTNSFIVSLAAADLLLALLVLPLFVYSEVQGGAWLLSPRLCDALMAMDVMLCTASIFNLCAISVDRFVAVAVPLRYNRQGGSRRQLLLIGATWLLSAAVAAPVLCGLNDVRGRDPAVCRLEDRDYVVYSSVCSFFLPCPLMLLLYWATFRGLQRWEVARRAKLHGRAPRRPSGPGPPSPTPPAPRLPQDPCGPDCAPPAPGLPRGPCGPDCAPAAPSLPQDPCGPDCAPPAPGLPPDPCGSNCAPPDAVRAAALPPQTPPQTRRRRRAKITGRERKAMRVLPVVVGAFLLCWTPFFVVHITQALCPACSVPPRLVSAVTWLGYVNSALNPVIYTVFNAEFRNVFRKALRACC

[6] = tested on: CD4+CD45RBhigh T cell-induced colitis; test: CD4+CD45RBhigh T cell-induced chronic colitis model; assay type: in vivo, Rag1-/- mice
From the text: C57BL/6 (Taconic, Cambridge City, IN) for the DSS model of colitis, as well as C57BL/6 and Rag1^−/− mice (Jackson Laboratory, Bar Harbor, ME) for the T-cell transfer model, were kept in sterilized, filter-topped cages under specific pathogen-free conditions upon arrival and fed autoclaved food. Male mice aged 8–10 wk were used for all experiments. Mice were acclimatized for 7 days before the start of any experiments. All experiments were approved by the animal ethics committee of McMaster University and conducted under Canadian guidelines for animal research.
Colitis was induced in Rag1^−/− mice by adoptive transfer of fluorescence-activated cell sorting (FACS)-sorted CD4^+CD45RB^high T cells, as described previously ([18]). Briefly, CD4^+ T cells were isolated from splenocytes of healthy C57BL/6 mice by the EasySep Mouse Naive CD4^+ T Cell Isolation Kit (StemCell Technology, Vancouver, Canada). Naive CD4^+ T cells were then labeled with PE-cy7-conjugated anti-mouse CD3 (BioLegend, San Diego, CA), allophycocyanin (APC)-conjugated anti-mouse CD4 (BD Biosciences), and fluorescein isothiocyanate (FITC)-conjugated anti-mouse CD45RB (BD Biosciences, Mississauga, Canada). CD4^+CD45RB^high T cells were sorted using a FACS Aria II flow cytometer (BD Biosciences, Mississauga, Canada). Cell viability was assessed using a Trypan blue assay before injection. Recipients were administered ∼5 × 10^5 sorted T cells via intraperitoneal injection.
For acute DSS-induced colitis, C576BL/6 mice were treated with MC-170073 (10 mg/kg of body wt) or vehicle (10% DMSO in normal saline) via intraperitoneal injection once daily for 6 days, starting 1 day before the beginning of DSS. In a separate experiment, C57BL/6 mice were orally administered with MC-230078 (10 mg/kg) or vehicle twice daily for 5 days, starting from the beginning of DSS. For chronic DSS-induced colitis, C57BL/6 mice were treated with MC-170073 (10 mg/kg ip) or vehicle once daily for 6 days, starting 1 day before the beginning of the third cycle. Last, for CD4^+CD45RB^high T cell-induced chronic colitis, reconstituted Rag1^−/− mice were orally administered MC-230078 (5 mg/kg or 10 mg/kg) or a vehicle twice daily for 10 days starting from week 6 post-reconstitution of T cells.
Disease activity index (DAI) is a combined score of weight loss, stool consistency, and fecal bleeding and was blindly assessed using a previously published scoring system ([19]). This scoring system was defined as follows: weight loss: 0 = no loss; 1 = 1–5%; 2 = 5–10%; 3 = 10–20%; 4 = 20%+; stool, 0 = normal; 2 = loose stool; 4 = diarrhea; and bleeding: 0 = no blood; 2 = hemoccult positive (Hemoccult II; Beckman Coulter, Fullerton, CA); and 4 = gross blood (blood around anus). DAI was measured across all days of DSS treatment. Macroscopic damage scores were blindly scored using a previously published scoring system for DSS-induced colitis ([19]).
Colonic myeloperoxidase (MPO) levels were measured following a published protocol ([19]). Briefly, colonic tissue samples were homogenized in ice-cold 50 mmol·L^−1 potassium phosphate buffer containing 0.5% hexadecyl trimethyl ammonium bromide (pH = 6.0) (Sigma). Homogenates were centrifuged, the supernatant was removed, and an aliquot was then added to a solution containing potassium phosphate buffer, O-dianisidine, and hydrogen peroxide (Sigma-Aldrich). The absorbance was measured at 450 nm by a spectrophotometer (model EL808, BioTek). MPO level was expressed in units per milligram of tissue, where 1 U is defined as the quantity of enzyme able to convert 1 μmol hydrogen peroxide to water per minute at room temperature.
Segments of the proximal colon were washed with PBS, fixed in 10% neutral-buffered formalin, washed with ethanol, and embedded in paraffin. […]

[7] = 10 mg/kg orally twice daily 10 days, vs vehicle

T1 sequence (P18089 whole entry): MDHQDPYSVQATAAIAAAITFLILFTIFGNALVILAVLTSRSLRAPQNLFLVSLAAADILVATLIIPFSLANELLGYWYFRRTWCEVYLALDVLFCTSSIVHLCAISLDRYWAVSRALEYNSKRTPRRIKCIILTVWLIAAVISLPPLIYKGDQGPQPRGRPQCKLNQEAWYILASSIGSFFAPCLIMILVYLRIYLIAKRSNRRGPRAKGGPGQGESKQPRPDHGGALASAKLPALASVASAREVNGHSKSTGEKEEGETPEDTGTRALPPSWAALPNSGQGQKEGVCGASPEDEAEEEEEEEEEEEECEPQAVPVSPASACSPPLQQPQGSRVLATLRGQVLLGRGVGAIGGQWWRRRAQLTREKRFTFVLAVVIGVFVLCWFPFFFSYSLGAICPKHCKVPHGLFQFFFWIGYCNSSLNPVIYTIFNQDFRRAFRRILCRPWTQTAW

Structure (SMILES)	Ki [1]	Ki [2]	Ki [3]	fraction unbound at 22 h [4]	Ki [5]	DAI ([6]; 10 mg/kg orally twice daily 10 days from week 6, from day 4 of dosing, vs vehicle)	colonic IFN-γ [6, 7]	colonic IL-1β [6, 7]	colonic IL-6 [6, 7]	colonic MPO levels [6, 7]	colonic TNF-α [6, 7]	macroscopic damage [6, 7]	body weight change ([6]; between the two drug-treated groups (5 and 10 mg/kg))	histological damage scores ([6]; higher dosage (10 mg/kg) orally twice daily 10 days)	colonic 5-HT levels ([6]; treated vs vehicle-treated mice)
CCC1(CC)CC(CCN2CCN(c3ccc(O)cc3)CC2)OC1=O (stereo not drawn) [MC-170073]	493 nM	1230 nM	301 nM	0.6	591 nM	–	–	–	–	–	–	–	–	–	–
CCC1(CC)C[C@@H](CCN2CCN(c3ccc(O)cc3)CC2)OC1=O [MC-230078]	–	–	–	–	–	significant reduction	significant downregulation	significant downregulation	significant downregulation	significant decrease	significant downregulation	reduced	no difference	significantly lower	no differences
